The source of these data is patent US12612441B2, “Polypeptide and therapeutic uses thereof” (Vitalixir (Beijing) Co., Ltd, priority 2019, dated 2026).

“Also recorded” adds a separate entry of the source. Where no end group is shown, it is not given here. [ ]: non-standard residue; d: D form. Aib = CC(C)(N)C(=O)O

Experiment [1] deals with db/db mice. Nature of the experiment: Blood glucose lowering in db/db mice (Example 8). In kind it is in vivo. Conditions: db/db male mice, 30 nmol/kg subcutaneous single dose, blood glucose 0-10 hours, AUC, vs PBS control; FIG. 2. The procedure: The feeding conditions of db/db mice were the same as described in Example 7. The db/db male mice (8 weeks old) were given one week to acclimate to the environmental conditions of the test facility. Baseline blood glucose and body weight were recorded for three days before the experiment (−3 day to −1 day). The mice were randomly grouped based on their three-day blood glucose and body weight, with 6 mice in each group. Mice were injected subcutaneously with PBS (5 ml/kg, control group) or the peptide compounds 31, 35, 38, 44 and 49 (30 nmol/kg) respectively at 10:00 in the morning. Blood was collected at 0 hour before drug administration, and 1, 2, 4, 6, 8, and 10 hours after administration, and blood glucose was measured using a OneTouch glucose meter (Johnson & Johnson) and test strips. Blood glucose curves were plotted with time as the abscissa and the blood glucose value at different time point as the ordinate, and the areas under the curve (AUC) were calculated.

Experiment [2] concerns DIO obese mice. In words: DIO obese mice 14-day body composition study (Example 14). In kind it is in vivo, C57BL/6 mice. The settings on record: 1.5 nmole per animal s.c. once a day for 14 days; for lean mass: EchoMRI day 0 vs day 15, FIG. 13; for fat mass: EchoMRI day 0 vs day 15, vs PBS control, FIG. 13. The procedure:
The DIO obese mice experiment was conducted by Shanghai WuXi AppTec New Drug Development Co., Ltd. The animal feeding was the same as described in Example 13. The animals were adapted to grasping and subcutaneous injection for 1 week at 40 weeks of age. The body weight and food intake were measured for 3 consecutive days before the experiment, and the fasting blood glucose of the animals was measured 1 day before the experiment. The animals with abnormal blood glucose were removed, and the remaining animals were grouped according to the random blood glucose and body weight of the animals (using body weight as the main reference indicator), with 6 animals per group and an average weight of 47 grams. During the experiment, each group of the animals was injected subcutaneously with PBS, or 1.5 nmole of compound 35 or compound 40 per animal once a day, and the dosing period was 14 days. An EchoMRI body composition analyzer was used to measure the body fat content of the animals before and after the experiment.

Experiment [3] relates to db/db mice. Nature of the experiment: Blood glucose lowering in db/db mice (Example 7). Format: in vivo. Conditions: db/db male mice, 30 nmol/kg subcutaneous single dose, blood glucose 0-10 hours, AUC, vs PBS control; FIG. 1. As to the method: db/db mice were housed in animal feeding rooms with strictly controlled environmental conditions. The temperature in the feeding room was maintained at 20-24° C. and the humidity was maintained at 40-70%. The temperature and humidity of the feeding room were monitored in real time by a temperature and humidity meter, and the temperature and humidity were recorded twice a day (once in the morning and once in the afternoon). The lighting in the animal feeding room was controlled by an electronic timing light-on system. The lights were turned on for 12 hours and turned off for 12 hours every day (on at 7:00 in the morning and off at 19:00 in the afternoon). During the experiment, the mice were individually housed in each cage, and toys were provided to the mice in each cage. During the experiment mice had free access to water. The db/db male mice (6 weeks old) were given one week to acclimate to the environmental conditions of the test facility. Baseline blood glucose and body weight were recorded for three days before the test (−3 day to −1 day). The mice were randomly grouped based on three-day blood glucose and body weight, with 6 mice in each group. The mice were injected subcutaneously with PBS (5 ml/kg, control group) or the peptide compounds 1, 2, 8, 16, 18, 19, 24, and 36 (30 nmol/kg) respectively at 10:00 am. Blood was collected at 0 hour before drug administration, and 1, 2, 4, 6, 8 and 10 hours after administration, and blood glucose was measured using a OneTouch glucose meter (Johnson & Johnson) and test strips. Blood glucose curves were plotted with time as the abscissa and the blood glucose value at different time point as the ordinate, the areas under the curve (AUC) were calculated, and the hypoglycemic effects and duration of time of the peptide compounds were compared.

Turning to “Y(aib)EGTFTSDLSI(aib)LEKEAVKLFIEWLLAGGPSSGAPPPK-NH2 (YXEGTFTSDLSIXLEKEAVKLFIEWLLAGGPSSGAPPPK; Aib; C-terminal amide; …ON (2)..(2) X=aminoisobutyric aicd; …ON (13)..(13) X=aminoisobutyric aicd; …ON (39)..(39) AMIDATION, C-termianl amidation) [Compound 49]”, in experiment [1], the blood glucose entry is “significantly reduced the blood glucose”.

As to “Y(aib)EGTFTSDLSI(aib)LEKEAVRLFIEWLLAGGPSSGAPPPC-NH2 (YXEGTFTSDLSIXLEKEAVRLFIEWLLAGGPSSGAPPPC; Aib; C-terminal amide; MOD_RES (2)..(2) X=aminoisobutyric aicd; MOD_RES (13)..(13) X=aminoisobutyric aicd; MOD_RES (39)..(39) AMIDATION, C-termianl amidation) [Compound 38]”, in experiment [1], the blood glucose result is “significantly reduced the blood glucose”.

For “Y(aib)EGTFTSDLSI(aib)LEKEAVRLFIEWLLAGGPSSGAPPPK-NH2 (YXEGTFTSDLSIXLEKEAVRLFIEWLLAGGPSSGAPPPK; Aib; C-terminal amide; MOD_RES (2)..(2) X=aminoisobutyric aicd; MOD_RES (13)..(13) X=aminoisobutyric aicd; MOD_RES (39)..(39) AMIDATION, C-termianl amidation) [Compound 40]”, in experiment [2], the lean mass result is “basically unchanged” and the fat mass result is “effectively reduced fat mass; also recorded: decreased markedly”.

With “Y(aib)EGTFTSDLSIALEKEAVKLFIEWLLAGGPSSGAPPPK-NH2 (Y[Aib]EGTFTSDLSIALEKEAVKLFIEWLLAGGPSSGAPPPK-NH2; N-terminus assumed; SMILES CC[C@H](C)[C@H](NC(=O)[C@H](CO)NC(=O)[C@H](CC(C)C)NC(=O)[C@H](CC(=O)O)NC(=O)[C@H](CO)NC(=O)[C@@H](NC(=O)[C@H](Cc1ccccc1)NC(=O)[C@@H](NC(=O)CNC(=O)[C@H](CCC(=O)O)NC(=O)C(C)(C)NC(=O)[C@@H](N)Cc1ccc(O)cc1)[C@@H](C)O)[C@@H](C)O)C(=O)N[C@@H](C)C(=O)N[C@@H](CC(C)C)C(=O)N[C@@H](CCC(=O)O)C(=O)N[C@@H](CCCCN)C(=O)N[C@@H](CCC(=O)O)C(=O)N[C@@H](C)C(=O)N[C@H](C(=O)N[C@@H](CCCCN)C(=O)N[C@@H](CC(C)C)C(=O)N[C@@H](Cc1ccccc1)C(=O)N[C@H](C(=O)N[C@@H](CCC(=O)O)C(=O)N[C@@H](Cc1c[nH]c2ccccc12)C(=O)N[C@@H](CC(C)C)C(=O)N[C@@H](CC(C)C)C(=O)N[C@@H](C)C(=O)NCC(=O)NCC(=O)N1CCC[C@H]1C(=O)N[C@@H](CO)C(=O)N[C@@H](CO)C(=O)NCC(=O)N[C@@H](C)C(=O)N1CCC[C@H]1C(=O)N1CCC[C@H]1C(=O)N1CCC[C@H]1C(=O)N[C@@H](CCCCN)C(N)=O)[C@@H](C)CC)C(C)C) [Compound 44]”, the blood glucose entry in experiment [1] is “significantly reduced the blood glucose”.

As to “Y(aib)EGTFTSDLSIALEKEAVRLFIEWLLAGGPSSGAPPPK-NH2 (Y[Aib]EGTFTSDLSIALEKEAVRLFIEWLLAGGPSSGAPPPK-NH2; N-terminus assumed; SMILES CC[C@H](C)[C@H](NC(=O)[C@H](CO)NC(=O)[C@H](CC(C)C)NC(=O)[C@H](CC(=O)O)NC(=O)[C@H](CO)NC(=O)[C@@H](NC(=O)[C@H](Cc1ccccc1)NC(=O)[C@@H](NC(=O)CNC(=O)[C@H](CCC(=O)O)NC(=O)C(C)(C)NC(=O)[C@@H](N)Cc1ccc(O)cc1)[C@@H](C)O)[C@@H](C)O)C(=O)N[C@@H](C)C(=O)N[C@@H](CC(C)C)C(=O)N[C@@H](CCC(=O)O)C(=O)N[C@@H](CCCCN)C(=O)N[C@@H](CCC(=O)O)C(=O)N[C@@H](C)C(=O)N[C@H](C(=O)N[C@@H](CCCNC(=N)N)C(=O)N[C@@H](CC(C)C)C(=O)N[C@@H](Cc1ccccc1)C(=O)N[C@H](C(=O)N[C@@H](CCC(=O)O)C(=O)N[C@@H](Cc1c[nH]c2ccccc12)C(=O)N[C@@H](CC(C)C)C(=O)N[C@@H](CC(C)C)C(=O)N[C@@H](C)C(=O)NCC(=O)NCC(=O)N1CCC[C@H]1C(=O)N[C@@H](CO)C(=O)N[C@@H](CO)C(=O)NCC(=O)N[C@@H](C)C(=O)N1CCC[C@H]1C(=O)N1CCC[C@H]1C(=O)N1CCC[C@H]1C(=O)N[C@@H](CCCCN)C(N)=O)[C@@H](C)CC)C(C)C) [Compound 35]”, in experiment [1], the blood glucose entry is “significantly reduced the blood glucose”. In experiment [2], the lean mass result is on record as “basically unchanged” and the fat mass result was “effectively reduced fat mass; also recorded: decreased markedly”.

With “Y(aib)EGTFTSDLSIALEKEAVRLFIEWLLAGGPSSGAPPPS-NH2 (Y[Aib]EGTFTSDLSIALEKEAVRLFIEWLLAGGPSSGAPPPS-NH2; N-terminus assumed; SMILES CC[C@H](C)[C@H](NC(=O)[C@H](CO)NC(=O)[C@H](CC(C)C)NC(=O)[C@H](CC(=O)O)NC(=O)[C@H](CO)NC(=O)[C@@H](NC(=O)[C@H](Cc1ccccc1)NC(=O)[C@@H](NC(=O)CNC(=O)[C@H](CCC(=O)O)NC(=O)C(C)(C)NC(=O)[C@@H](N)Cc1ccc(O)cc1)[C@@H](C)O)[C@@H](C)O)C(=O)N[C@@H](C)C(=O)N[C@@H](CC(C)C)C(=O)N[C@@H](CCC(=O)O)C(=O)N[C@@H](CCCCN)C(=O)N[C@@H](CCC(=O)O)C(=O)N[C@@H](C)C(=O)N[C@H](C(=O)N[C@@H](CCCNC(=N)N)C(=O)N[C@@H](CC(C)C)C(=O)N[C@@H](Cc1ccccc1)C(=O)N[C@H](C(=O)N[C@@H](CCC(=O)O)C(=O)N[C@@H](Cc1c[nH]c2ccccc12)C(=O)N[C@@H](CC(C)C)C(=O)N[C@@H](CC(C)C)C(=O)N[C@@H](C)C(=O)NCC(=O)NCC(=O)N1CCC[C@H]1C(=O)N[C@@H](CO)C(=O)N[C@@H](CO)C(=O)NCC(=O)N[C@@H](C)C(=O)N1CCC[C@H]1C(=O)N1CCC[C@H]1C(=O)N1CCC[C@H]1C(=O)N[C@@H](CO)C(N)=O)[C@@H](C)CC)C(C)C) [Compound 31]”, the blood glucose result in experiment [1] is recorded as “significantly reduced the blood glucose”.

With “Y(aib)EGTFTSDYSIYLEKEAVRLFVNWLIAGGPSSGAPPPS-NH2 (Y[Aib]EGTFTSDYSIYLEKEAVRLFVNWLIAGGPSSGAPPPS-NH2; N-terminus assumed; SMILES CC[C@H](C)[C@H](NC(=O)[C@H](CC(C)C)NC(=O)[C@H](Cc1c[nH]c2ccccc12)NC(=O)[C@H](CC(N)=O)NC(=O)[C@@H](NC(=O)[C@H](Cc1ccccc1)NC(=O)[C@H](CC(C)C)NC(=O)[C@H](CCCNC(=N)N)NC(=O)[C@@H](NC(=O)[C@H](C)NC(=O)[C@H](CCC(=O)O)NC(=O)[C@H](CCCCN)NC(=O)[C@H](CCC(=O)O)NC(=O)[C@H](CC(C)C)NC(=O)[C@H](Cc1ccc(O)cc1)NC(=O)[C@@H](NC(=O)[C@H](CO)NC(=O)[C@H](Cc1ccc(O)cc1)NC(=O)[C@H](CC(=O)O)NC(=O)[C@H](CO)NC(=O)[C@@H](NC(=O)[C@H](Cc1ccccc1)NC(=O)[C@@H](NC(=O)CNC(=O)[C@H](CCC(=O)O)NC(=O)C(C)(C)NC(=O)[C@@H](N)Cc1ccc(O)cc1)[C@@H](C)O)[C@@H](C)O)[C@@H](C)CC)C(C)C)C(C)C)C(=O)N[C@@H](C)C(=O)NCC(=O)NCC(=O)N1CCC[C@H]1C(=O)N[C@@H](CO)C(=O)N[C@@H](CO)C(=O)NCC(=O)N[C@@H](C)C(=O)N1CCC[C@H]1C(=O)N1CCC[C@H]1C(=O)N1CCC[C@H]1C(=O)N[C@@H](CO)C(N)=O) [Compound 8]”, in experiment [3], the blood glucose result was “significantly reduce blood glucose”.
